Read-outs that look alike come from different tables or passages of the source.
Assays:
[1] = molecular target: T1, trypsin (Bos taurus, UniProt P00760); experiment: Inhibition of trypsin; format: biochemical
T1 sequence (P00760 24-246): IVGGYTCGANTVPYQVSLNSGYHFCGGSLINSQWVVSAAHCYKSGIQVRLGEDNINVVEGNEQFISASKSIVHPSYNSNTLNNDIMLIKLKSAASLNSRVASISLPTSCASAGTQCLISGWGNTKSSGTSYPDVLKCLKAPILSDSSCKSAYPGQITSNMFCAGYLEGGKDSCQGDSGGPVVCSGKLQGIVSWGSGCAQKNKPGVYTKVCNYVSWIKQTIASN

[2] = tested on: HIV-1; conditions: cited from earlier work
[3] = tested on: HIV-1; conditions: T cells infected in vitro; cited from earlier work
[4] = tested on: HIV; conditions: cited from earlier work
[5] = Cytotoxicity in HeLa-Ohio cells; format: cell-based, human; conditions: human, hela-ohio cells; read-out: concentration above which cytotoxic
[6] = patients; cited from earlier work
[7] = tested on: HRV14; experiment: Cytopathogenic effect of HRV14 in HeLa-Ohio cells; format: cell-based; conditions: 0.03 to 100 μM, added 1 hour after infection
Procedure: HeLa-Ohio cells cultured until they have become confluent, are infected with a suspension of HRV14 virus. The cytopathogenic effect of the virus is evaluated by staining the cells with a 0.5% solution of crystal violet and 20% of methanol; after rinsing the plates with water, the optical density is read at 550 nm.
For the rest of the experiment, the cells are infected with a viral suspension with a titre such that 50% of the cells are killed after 3 days on control cells not receiving any treatment. 1 hour after the infection, the test product (AmB or DABF-AmB) is added at concentrations ranging from 0.03 to 100 μM. The percentage inhibition of the cytopathogenic effect is determined as follows:
OD (treated infected cells)-OD (infected cells)!
OD (healthy cells)-OD (infected cells)!
The effect of the addition of DABF-AmB was tested at various times: preincubation of the cells with DABF-AmB before the viral infection; addition of DABF-AmB at the time of the infection; addition of DABF-AmB after the infection, during the period of viral proliferation.

[8] = tested on: DNA and RNA viruses containing a lipid envelope; conditions: in vitro; cited from earlier work
[9] = read-out: % inhibition of trypsin relative to a control without inhibitor

Molecule: COC(=O)[C@H]1[C@@H]2C[C@@H](O[C@@H]3O[C@H](C)[C@@H](O)[C@H](N)[C@@H]3O)/C=C/C=C/C=C/C=C/C=C/C=C/C=C/[C@H](C)[C@@H](O)[C@@H](C)[C@H](C)OC(=O)C[C@H](O)C[C@H](O)CC[C@@H](O)[C@H](O)C[C@H](O)C[C@](O)(C[C@@H]1O)O2 [AME, methyl ester of amphotericin B]
- inhibition at 1 µM [1, 9]: ~10%
- capacity of preincubated HIV-infected lymphocytes to form syncytia with uninfected cells ([2]; HIV-infected lymphocytes preincubated): increased
- inhibition of infection by preincubation of healthy lymphocytes prior to infection ([2]; lymphocytes preincubated): inhibits the infection
- inhibition of cell death and of viral expression [3]: inhibitors of cell death and of viral expression

Molecule: Cc1cn([C@H]2C[C@H](N=[N+]=[N-])[C@@H](CO)O2)c(=O)[nH]c1=O [AZT, 3'-azido-2',3'-dideoxythymidine]
- side effects of treatment ([4]; human, in vivo): severe side effects of treatment with AZT, in particular a degeneration of bone marrow
- clinical condition of AIDS patients [4]: improvement of the clinical condition of patients

Molecule: C[C@@H]1[C@H](O)[C@@H](C)/C=C/C=C/C=C/C=C/C=C/C=C/C=C/[C@H](O[C@@H]2O[C@H](C)[C@@H](O)[C@H](N)[C@@H]2O)C[C@@H]2O[C@](O)(C[C@@H](O)C[C@@H](O)[C@H](O)CC[C@@H](O)C[C@@H](O)CC(=O)O[C@H]1C)C[C@H](O)[C@H]2C(=O)O [AmB, amphotericin B]
- inhibition of trypsin (in words) [1]: a certain inhibitory activity on trypsin
- inhibition at 10 µM ([1]; 10^-5 M): 30%
- inhibition at 1 µM ([1]; 10^-6 M, read-out: % of inhibition of trypsin): 10%
- inhibition at 0.1 µM ([1]; 10^-7 M): 5%
- inhibition at 1 µM [1, 9]: ~10%
- MCC [5]: > 5 µM
- side effects of prolonged treatment [6]: frequent side effects such as fever or serious nephrotoxicity
- antiviral activity on HRV14 (in words) [7]: no detectable antiviral activity
- activity against enveloped DNA and RNA viruses and herpes virus strains [8]: active in vitro

Molecule: C[C@@H]1[C@H](O)[C@@H](C)/C=C/C=C/C=C/C=C/C=C/C=C/C=C/[C@H](O[C@@H]2O[C@H](C)[C@@H](O)[C@H](NC(=O)C(N)CC(=O)O)[C@@H]2O)C[C@@H]2O[C@](O)(C[C@@H](O)C[C@@H](O)[C@H](O)CC[C@@H](O)C[C@@H](O)CC(=O)O[C@H]1C)C[C@H](O)[C@H]2C(=O)O (some centres unmarked) [N-aspartyl-AmB]
- inhibition at 1 µM ([1]; 1 μM, FIG. 1, read-out: % inhibition of trypsin relative to a control without inhibitor): ~40%

Molecule: CNC[C@H](O)[C@@H](O)[C@H](O)[C@H](O)CO [N-methylglucamine, reference compound]
- antiviral activity on HRV14 (in words) [7]: no effect on the virus

Molecule: OC[C@@H]1CC[C@H](n2cnc3c(O)ncnc32)O1 [ddI, 2',3'-dideoxyinosine]
- clinical condition of AIDS patients [4]: improvement of the clinical condition of patients

Molecule: N N'-(2,4'-methylmorpholino)-N"-ethylguanyl!amphotericin B [MCG]
- cell-protecting properties [2]: does not possess, according to this study, cell-protecting properties
- direct antiviral action ([2]; preincubation with the virus): has a direct antiviral action

Reference: US5514662A, “Use of amphotericin B derivatives as protease inhibitors” (priority 1991, dated 1996)
